From patent US20240009148A1, “Cystamine Formulations and Uses Thereof” (Birch Therapeutics, Inc., priority 2020, published 2024)
Counter-ions that a name gives are not always drawn. Like-named read-outs stand apart in the source and are kept apart here. Each block holds one compound with its values, some of them ahead of it.

Assays:
[1] = design: species or system male Sprague Dawley rats; settings: rat, in vivo
Experimental: Cystamine dihydrochloride and cysteamine hydrochloride were administered to rats 1) orally on an empty stomach; 2) orally on full stomach; and 3) intra-cecum to evaluate the pharmacokinetics of cystamine and to compare it to cysteamine pharmacokinetics. Oral administration (PO) simulated immediate-release (IR) formulations. Intra-cecum (IC) administration simulated large intestine release (LIR) formulations, which provides a time to Cmax of more than 4 hours after administration.
Animal studies were performed by Absorption Systems. Test articles: Cysteamine hydrochloride (CH), 98%; Cystamine dihydrochloride (HCCH), 95-96% (both obtained from Sigma Aldrich). CH has one cysteamine base, while HCCH, upon disulfide bond reduction, yields two cysteamine molecules. CH and HCCH were administered at a dose selected to deliver 30 mg/kg of cysteamine base (44.2 mg/kg and 43.8 mg/kg respectively), so that each rat received same number of cysteamine molecules. Test articles (dry powder) were dissolved in 3 mL for PO and in 0.5 mL for IC of room temperature water no more than 15 minutes before dosing.
Five (5) male Sprague Dawley rats ˜300-350 gram (Envigo) were used per group, with 6 groups total.
All animals were healthy at the start of the trial and assigned randomly to the study groups by weight. Fed state animals had food and water supplied ad libitum. Fasted state animals had food removed at least 12 hours prior to dosing and food was returned 4 hours post dosing; water was supplied ad libitum. Oral gavage needle and syringe were used for oral administration. For IC dose administration, the animals were anesthetized with isoflurane regulated at ˜1-3% in oxygen. The abdominal cavity was surgically opened and the proximal large intestine was exposed. A test article was administered directly into the proximal large intestine with a 1 cc disposable syringe equipped with a 25 g hypodermic needle. The surgical site was then closed with staples or suture.
Blood was sampled from jugular vein at the following time points: pre-dose, 15, 30, 60, 120, 180, and 240 minutes post dose. Blood samples were collected into tubes containing TBD anticoagulant, then centrifuged at a temperature of 4° C., at 3,000×g, for 5 minutes. Once prepared, plasma samples were snap frozen. Plasma samples were stored at −80° C. until analysis.
Sample analysis was performed by Integrated Analytical Solutions. To measure plasma cysteamine, to 10 uL of a plasma sample or standard was added 10 uL of internal standard with reduction solution: 5 ug/mL d4-cysteamine (CDN Isotopes), 10 mM TCEP in water, prepared fresh, and mixed thoroughly. The mixture was incubated at 37° C. for 60 minutes, then 40 uL of 5% trichloroacetic acid was added and the solution was mixed thoroughly. Samples were then centrifuged at 6100 g for 30 minutes. Next, 20 uL of each supernatant were transferred to an autosampler plate and sealed with a cap mat. The concentration of cysteamine was measured by use of LC/MS/MS tandem mass spectroscopy. Column Atlantis T3 2.1×30mm, 3um was used at a room temperature; mobile phase A: 0.1% heptafluorobutyric acid in water; mobile phase B: 0.2% formic acid in acetonitrile; injection volume: 3 uL. (API 4000 LC/MS/MS; Applied Biosystems). The following MS parameters were used—HPLC system: Shimadzu VP Series 10 System; MS/MS: Applied Biosystems/MDS SCIEX API 4000; software: Analyst v1.6.3; isolation method: Electrospray, Positive Ion; source temperature: TurbolonSpray (ESI) at 400°. Cysteamine concentrations were calculated with a calibration curve that was prepared by spiking plasma with buffered cysteamine solutions, and quality control samples were analyzed with each batch.

[2] = system: cystinosis fibroblast cell culture; settings: compared with cysteamine (Thoene 1976); cited from earlier work

AUC for dosing into the large intestine lower than AUC for oral dosing ([1]; male, Sprague Dawley, po): 25% | Cmax for IC dosing lower than Cmax after oral administration ([1]; male, Sprague Dawley, po): more than 50% | Absorption pattern after dosing to the large intestine [1]: not rapid, but rather sustained | Cmax of plasma cysteamine compared to CH ([1]; po): higher Cmax
SMILES: Cl.Cl.NCCSSCCN [HCCH, Cystamine dihydrochloride]

SMILES: NCCSSCCN [Cystamine]
Decrease of lysosomal cystine [2]: comparably to cysteamine

Cmax of plasma cysteamine, IC compared to PO fasted [1]: higher | Tmax (time to Cmax) of plasma cysteamine [1]: 15 min | Tmax (time to Cmax) of plasma cysteamine ([1]; po): 15 min
SMILES: NCCS [CH, Cysteamine hydrochloride, reference compound]
